According to patent publication US12577240B2, “Antiviral heteroaryl ketone derivatives” (Pfizer Inc., priority 2020, dated 2026):

Legend:
[1] = target: T1, full length SARS-CoV-2 3CL protease (Severe acute respiratory syndrome coronavirus 2, UniProt P0DTD1); assay: SARS-CoV-2 Coronavirus 3C Protease FRET Assay; format: biochemical; conditions: 15 nM enzyme, 25 μM peptide substrate, 60 minutes at 23° C., Morrison equation fit; read-out: FRET Assay Geometric Mean Ki
T1 construct: measures the activity of full length SARS-CoV-2 3CL protease

[2] = test system: SARS-CoV-2 (USA_WA1/2020) in VeroE6 cells enriched for hACE2 expression; assay: Antiviral Activity from SARS-CoV-2 Infection (cytopathic effect, Cell Titer-Glo cell viability); format: cell-based; conditions: Severe acute respiratory syndrome coronavirus 2, Vero C1008, 72 h; VeroE6 cells enriched for hACE2, multiplicity of infection 0.002, 3-day incubation; alone or with 2 μM CP-100356 (table does not say which); read-out: Antiviral Assay Geometric Mean EC50

SMILES | Ki [1] [nM] | EC50 [2] [nM]
CC(C)[C@H](NS(C)(=O)=O)C(=O)N1CC2(CC2)C[C@H]1C(=O)N[C@@H](C[C@@H]1CCNC1=O)C(=O)c1nc2ccccc2s1 [Example 1, (6S)—N-{(2S)-1-(1,3-Benzothiazol-2-yl)-1-oxo-3-[(3S)-2-oxopyrrolidin-3-yl]propan-2-yl}-5-{(2S)-3-methyl-2-[(methylsulfonyl)amino]butanoyl}-5-azaspiro[2.4]heptane-6-carboxamide] | 20.2 | 5680
COc1cccc2[nH]c(C(=O)N3C[C@H]4[C@@H]([C@H]3C(=O)N[C@@H](C[C@@H]3CCNC3=O)C(=O)c3nc5ccccc5s3)C4(C)C)cc12 [Example 2, (1R,2S,5S)—N-{(2S)-1-(1,3-Benzothiazol-2-yl)-1-oxo-3-[(3S)-2-oxopyrrolidin-3-yl]propan-2-yl}-3-[(4-methoxy-1H-indol-2-yl)carbonyl]-6,6-dimethyl-3-azabicyclo[3.1.0]hexane-2-carboxamide] | 206 | –
CC(C)[C@H](NS(C)(=O)=O)C(=O)N1C[C@H]2[C@@H]([C@H]1C(=O)N[C@@H](C[C@@H]1CCNC1=O)C(=O)c1nc3c(C(F)(F)F)cccc3s1)C2(C)C [Example 4, (1R,2S,5S)-6,6-Dimethyl-3-[N-(methylsulfonyl)-L-valyl]-N-{(2S)-1-oxo-3-[(3S)-2-oxopyrrolidin-3-yl]-1-[4-(trifluoromethyl)-1,3-benzothiazol-2-yl]propan-2-yl}-3-azabicyclo[3.1.0]hexane-2-carboxamide] | 7.74 | –
CC(C)(C)OC(=O)N[C@H](C(=O)N1C[C@H]2[C@@H]([C@H]1C(=O)N[C@@H](C[C@@H]1CCNC1=O)C(=O)c1nc3ccccc3s1)C2(C)C)C(C)(C)C [Example 6, tert-Butyl {(2S)-1-[(1R,2S,5S)-2-({(2S)-1-(1,3-benzothiazol-2-yl)-1-oxo-3-[(3S)-2-oxopyrrolidin-3-yl]propan-2-yl}carbamoyl)-6,6-dimethyl-3-azabicyclo[3.1.0]hexan-3-yl]-3,3-dimethyl-1-oxobutan-2-yl}carbamate] | 137 | 492
CC1(C)[C@@H]2[C@@H](C(=O)N[C@@H](C[C@@H]3CCNC3=O)C(=O)c3nc4ccccc4s3)N(C(=O)[C@H]3CCCO3)C[C@@H]21 [Example 8, (1R,2S,5S)-N-{(2S)-1-(1,3-benzothiazol-2-yl)-1-oxo-3-[(3S)-2-oxopyrrolidin-3-yl]propan-2-yl}-6,6-dimethyl-3-[(2R)-tetrahydrofuran-2-ylcarbonyl]-3-azabicyclo[3.1.0]hexane-2-carboxamide] | 6330 | –
O=C1NCC[C@H]1C[C@H](NC(=O)[C@@H]1CC2(CC2)CN1C(=O)[C@H]1CCCO1)C(=O)c1nc2ccccc2s1 [Example 9, (6S)-N-{(2S)-1-(1,3-benzothiazol-2-yl)-1-oxo-3-[(3S)-2-oxopyrrolidin-3-yl]propan-2-yl}-5-[(2R)-tetrahydrofuran-2-ylcarbonyl]-5-azaspiro[2.4]heptane-6-carboxamide] | > 10000 | –
CC(C)[C@H](NS(=O)(=O)C1CC1)C(=O)N1C[C@H]2[C@@H]([C@H]1C(=O)N[C@@H](C[C@@H]1CCNC1=O)C(=O)c1nc3ccccc3s1)C2(C)C [Example 10, (1R,2S,5S)-N-{(2S)-1-(1,3-benzothiazol-2-yl)-1-oxo-3-[(3S)-2-oxopyrrolidin-3-yl]propan-2-yl}-3-[N-(cyclopropylsulfonyl)-L-valyl]-6,6-dimethyl-3-azabicyclo[3.1.0]hexane-2-carboxamide] | 19.6 | –
CC(C)(C)[C@H](NS(=O)(=O)C(C)(C)C)C(=O)N1C[C@H]2[C@@H]([C@H]1C(=O)N[C@@H](C[C@@H]1CCNC1=O)C(=O)c1nc3ccccc3s1)C2(C)C [Example 11, (1R,2S,5S)-N-{(2S)-1-(1,3-benzothiazol-2-yl)-1-oxo-3-[(3S)-2-oxopyrrolidin-3-yl]propan-2-yl}-3-[N-(tert-butylsulfonyl)-3-methyl-L-valyl]-6,6-dimethyl-3-azabicyclo[3.1.0]hexane-2-carboxamide] | 13.7 | 155
CC(C)[C@H](NS(=O)(=O)C(C)(C)C)C(=O)N1C[C@H]2[C@@H]([C@H]1C(=O)N[C@@H](C[C@@H]1CCNC1=O)C(=O)c1nc3ccccc3s1)C2(C)C [Example 12, (1R,2S,5S)-N-{(2S)-1-(1,3-benzothiazol-2-yl)-1-oxo-3-[(3S)-2-oxopyrrolidin-3-yl]propan-2-yl}-3-[N-(tert-butylsulfonyl)-L-valyl]-6,6-dimethyl-3-azabicyclo[3.1.0]hexane-2-carboxamide] | 34.2 | –
CC(C)C(=O)N[C@H](C(=O)N1C[C@H]2[C@@H]([C@H]1C(=O)N[C@@H](C[C@@H]1CCNC1=O)C(=O)c1nc3ccccc3s1)C2(C)C)C(C)(C)C [Example 14, (1R,2S,5S)-N-{(2S)-1-(1,3-benzothiazol-2-yl)-1-oxo-3-[(3S)-2-oxopyrrolidin-3-yl]propan-2-yl}-6,6-dimethyl-3-[3-methyl-N-(2-methylpropanoyl)-L-valyl]-3-azabicyclo[3.1.0]hexane-2-carboxamide] | 6.02 | –
CCC(=O)N[C@H](C(=O)N1C[C@H]2[C@@H]([C@H]1C(=O)N[C@@H](C[C@@H]1CCNC1=O)C(=O)c1nc3ccccc3s1)C2(C)C)C(C)(C)C [Example 15, (1R,2S,5S)-N-{(2S)-1-(1,3-benzothiazol-2-yl)-1-oxo-3-[(3S)-2-oxopyrrolidin-3-yl]propan-2-yl}-6,6-dimethyl-3-(3-methyl-N-propanoyl-L-valyl)-3-azabicyclo[3.1.0]hexane-2-carboxamide] | 6.14 | –
CCS(=O)(=O)N[C@H](C(=O)N1C[C@H]2[C@@H]([C@H]1C(=O)N[C@@H](C[C@@H]1CCNC1=O)C(=O)c1nc3ccccc3s1)C2(C)C)C(C)C [Example 16, (1R,2S,5S)-N-{(2S)-1-(1,3-benzothiazol-2-yl)-1-oxo-3-[(3S)-2-oxopyrrolidin-3-yl]propan-2-yl}-3-[N-(ethylsulfonyl)-L-valyl]-6,6-dimethyl-3-azabicyclo[3.1.0]hexane-2-carboxamide] | 10.3 | –
CC(C)(C)C(=O)N[C@H](C(=O)N1C[C@H]2[C@@H]([C@H]1C(=O)N[C@@H](C[C@@H]1CCNC1=O)C(=O)c1nc3ccccc3s1)C2(C)C)C(C)(C)C [Example 17, (1R,2S,5S)-N-{(2S)-1-(1,3-benzothiazol-2-yl)-1-oxo-3-[(3S)-2-oxopyrrolidin-3-yl]propan-2-yl}-3-[N-(2,2-dimethylpropanoyl)-3-methyl-L-valyl]-6,6-dimethyl-3-azabicyclo[3.1.0]hexane-2-carboxamide] | 99.1 | 584
CC(C)(C)[C@H](NS(C)(=O)=O)C(=O)N1C[C@H]2[C@@H]([C@H]1C(=O)N[C@@H](C[C@@H]1CCNC1=O)C(=O)c1nc3ccccc3s1)C2(C)C [Example 18, (1R,2S,5S)-N-{(2S)-1-(1,3-benzothiazol-2-yl)-1-oxo-3-[(3S)-2-oxopyrrolidin-3-yl]propan-2-yl}-6,6-dimethyl-3-[3-methyl-N-(methylsulfonyl)-L-valyl]-3-azabicyclo[3.1.0]hexane-2-carboxamide] | 1.55 | 129
CC(=O)N[C@H](C(=O)N1C[C@H]2[C@@H]([C@H]1C(=O)N[C@@H](C[C@@H]1CCNC1=O)C(=O)c1nc3ccccc3s1)C2(C)C)C(C)(C)C [Example 19, (1R,2S,5S)-3-(N-acetyl-3-methyl-L-valyl)-N-{(2S)-1-(1,3-benzothiazol-2-yl)-1-oxo-3-[(3S)-2-oxopyrrolidin-3-yl]propan-2-yl}-6,6-dimethyl-3-azabicyclo[3.1.0]hexane-2-carboxamide] | 9.77 | 1330
CC1(C)C[C@@H](C(=O)N[C@@H](C[C@@H]2CCNC2=O)C(=O)c2nc3ccccc3s2)N(C(=O)[C@H]2CCCO2)C1 [Example 20, N-{(2S)-1-(1,3-benzothiazol-2-yl)-1-oxo-3-[(3S)-2-oxopyrrolidin-3-yl]propan-2-yl}-4,4-dimethyl-1-[(2R)-tetrahydrofuran-2-ylcarbonyl]-L-prolinamide] | > 10800 | –
